The results in this text go back to paper PMC6255212, “Coupled molecular dynamics mediate long- and short-range epistasis between mutations that affect stability and aggregation kinetics” (Proceedings of the National Academy of Sciences of the …, 2018).

This assay deals with T1, Escherichia coli transketolase (TK) (Escherichia coli, UniProt P27302).
T1 construct: gene tktA; homodimer of 70- to 74-kDa monomers; holo enzyme with ThDP and Mg2+
The assay is described as follows: steady-state enzyme kinetics. In kind it is biochemical. Particulars: 50 mM Li-HPA (lithium beta-hydroxypyruvate, saturating), 4-80 mM glycolaldehyde.

The structures appear in SMILES notation.

T1 sequence (P27302 2-663): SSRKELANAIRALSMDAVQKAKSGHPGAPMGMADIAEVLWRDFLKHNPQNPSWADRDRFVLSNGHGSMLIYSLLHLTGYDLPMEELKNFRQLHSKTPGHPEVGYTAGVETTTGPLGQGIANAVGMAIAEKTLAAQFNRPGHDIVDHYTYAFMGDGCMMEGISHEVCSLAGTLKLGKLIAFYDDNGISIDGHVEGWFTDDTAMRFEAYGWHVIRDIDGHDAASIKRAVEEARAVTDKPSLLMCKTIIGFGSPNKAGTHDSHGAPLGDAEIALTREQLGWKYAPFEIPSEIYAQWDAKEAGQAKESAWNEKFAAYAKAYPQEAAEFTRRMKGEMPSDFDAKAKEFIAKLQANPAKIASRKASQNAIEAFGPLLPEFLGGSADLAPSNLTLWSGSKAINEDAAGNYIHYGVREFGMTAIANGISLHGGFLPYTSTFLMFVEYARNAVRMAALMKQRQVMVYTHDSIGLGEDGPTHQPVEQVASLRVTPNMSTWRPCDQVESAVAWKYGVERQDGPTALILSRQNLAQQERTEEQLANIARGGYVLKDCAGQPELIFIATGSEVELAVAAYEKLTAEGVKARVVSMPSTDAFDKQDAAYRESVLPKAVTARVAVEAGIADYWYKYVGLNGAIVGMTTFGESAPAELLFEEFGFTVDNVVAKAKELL

For `O=CCO` [glycolaldehyde], the Km is 20.3 mM.

The term Km denotes the substrate concentration at which the rate is half of its maximum.
